These results are taken from US9096550B2, “Bryostatin analogues and methods of making and using thereof” (UNIVERSITY OF UTAH RESEARCH FOUNDATION, priority 2008, dated 2015).

The term Ki denotes a dissociation constant, usually derived from enzyme kinetics or from competition with a known ligand.

This assay has as its target mouse recombinant isozyme PKCα (Mus musculus, UniProt P20444). Put plainly: [3H]PDBu binding assay (displacement of bound [20-3H]phorbol 12,13-dibutyrate). The following applies: displacement of [3H]PDBu from PKCα in the presence of calcium and phosphatidylserine; read-out: inhibitory dissociation constant (Ki). As for the experimental part:
The inhibitory dissociation constant (Ki) of each bryologue ligand was determined by the ability of the ligand to displace bound [20-^3H]phorbol 12,13-dibutyrate (PDBu) from mouse recombinant isozyme PKC α in the presence of calcium and phosphatidylserine, using a polyethylene glycol precipitation assay developed in our laboratory as described elsewhere. Briefly, the assay mixture (250 μL) contained 50 mM Tris-HCl (pH 7.4 at room temperature), 100 μg/mL phosphatidylserine, 0.1 mM Ca^2+, 4 mg/mL bovine immunoglobulin G and 0.003% Tx-100, 2 nM [^3H]PDBu and various concentrations of the competing ligand. […] The radioactivity was determined by scintillation counting, using Cytoscint (ICN, Costa Mesa, Calif.). Specific binding was calculated as the difference between total and nonspecific PDBu binding. The Inhibitory dissociation constants (Ki) were calculated using the method previously described by Blumberg and Lewin.
The inhibitory dissociation constant (Ki) of MERLE 28 was determined by the ability of the ligand to displace bound [20-^3H]phorbol 12,13-dibutyrate (PDBu) from mouse recombinant isozyme PKCα in the presence of calcium and phosphatidylserine, using a polyethylene glycol precipitation assay previously described by Blumberg and Lewin. […] The radioactivity was determined by scintillation counting, using Cytoscint (ICN, Costa Mesa, Calif.). […]

For `C=C1C[C@H]2C[C@H]3C[C@@H](OC(C)=O)C[C@@H](C[C@@H](O)CC(=O)O[C@@H]([C@@H](C)O)C[C@@H]4C/C(=C\C(=O)OC)[C@H](OC(=O)CCCCCCC)[C@@](O)(O4)C(C)(C)/C=C/[C@@H](C1)O2)O3` [MERLE 27], the Ki came to 3 ± 0.6 nM.
